In brackets after ≈: the same amount, converted by molar mass. Read-outs that look alike come from different tables or passages of the source.
Key:
[1] = tested on: Pseudomonas aeruginosa (P. aeruginosa) 27853; experiment: Antibacterial activity, MIC, P. aeruginosa 27853; format: cell-based; settings: P. aeruginosa 27853; for MIC: Pseudomonas aeruginosa, read-out: MIC 27853
Source text: (§1) The antibacterial activity from a microbroth dilution method may be presented as the minimum inhibitory concentration (MIC in […]). The MIC value is the lowest concentration of a drug which prevents macroscopically visible bacterial growth under test conditions.
Antibacterial activity of test compounds against the Gram-negative bacterium Pseudomonas aeruginosa (P. aeruginosa) 27853 is shown in Table 5.

[2] = tested on: quinolone resistant E. coli LZ3111; experiment: Antibacterial activity, MIC, quinolone resistant E. coli LZ3111; format: cell-based, Escherichia coli; settings: Escherichia coli, read-out: MIC, LZ3111
Source text: as §1
Mutations in these regions are known to confer a high level resistance to the quinolone class of antibiotics.

[3] = tested on: resistant A. baumannii MXX2240 (MDR clinical isolate); experiment: Antibacterial activity, MIC, resistant A. baumannii MXX2240; format: cell-based, Acinetobacter baumannii; settings: for MIC: Acinetobacter baumannii, read-out: MIC MMX2240
[4] = tested on: control Gram-negative E. coli 25922 strain; experiment: Antibacterial activity, microbroth dilution MIC, E. coli 25922; format: cell-based, Escherichia coli; settings: Escherichia coli; E. coli 25922, microbroth dilution; read-out: MIC, 25922
[5] = tested on: super sensitive Gram-negative Escherichia coli (E. coli) BAS849; experiment: Antibacterial activity, microbroth dilution MIC, E. coli BAS849; format: cell-based; settings: Escherichia coli; E. coli BAS849, microbroth dilution; read-out: MIC, BAS849
[6] = tested on: Klebsiella pneumoniae (K. pneumoniae) 35657; experiment: Antibacterial activity, MIC, K. pneumoniae 35657; format: cell-based; settings: for MIC: Klebsiella pneumoniae
[7] = tested on: resistant K. pneumoniae MXX1232 (MDR clinical isolate); experiment: Antibacterial activity, MIC, resistant K. pneumoniae MXX1232; format: cell-based, Klebsiella pneumoniae; settings: Klebsiella pneumoniae, read-out: MIC MMX1232
[8] = tested on: Gram-positive Staphylococcus aureus (S. aureus) 29213; experiment: Antibacterial activity, microbroth dilution MIC, S. aureus 29213; format: cell-based; settings: Staphylococcus aureus; S. aureus 29213, microbroth dilution; read-out: MIC, 29213
[9] = tested on: Acinetobacter baumannii (A. baumannii) BAA747; experiment: Antibacterial activity, MIC, A. baumannii BAA747; format: cell-based; settings: Acinetobacter baumannii; A. baumannii BAA747; read-out: MIC BAA747
[10] = tested on: Moraxella catarrhalis (M. catarrhalis) 25238; experiment: Antibacterial activity, MIC, M. catarrhalis 25238; format: cell-based; settings: Moraxella catarrhalis, M. catarrhalis 25238; read-out: MIC 25238
[11] = tested on: Haemophilus influenzae (H. influenzae) 49247; experiment: Antibacterial activity, MIC, H. influenzae 49247; format: cell-based; settings: Haemophilus influenzae; H. influenzae 49247; read-out: MIC 49247
Outline: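 Antibacterial activity against the Gram-negative organism Haemophilus influenzae strain 49247 was measured by microbroth dilution. The minimum inhibitory concentration (MIC) was taken as the lowest drug concentration that stopped bacterial growth from being visible to the naked eye under the test conditions.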

[12] = tested on: Neisseria meningitidis (N. meningitidis) 13090; experiment: Antibacterial activity, MIC, N. meningitidis 13090; format: cell-based; settings: Neisseria meningitidis; N. meningitidis 13090; read-out: MIC 13090
[13] = tested on: E. coli ELZ4000 (MDR clinical isolate); experiment: Antibacterial activity, MIC, MDR E. coli ELZ4000; format: cell-based, Escherichia coli; settings: Escherichia coli; E. coli ELZ4000, MDR clinical isolate; read-out: MIC ELZ4000
[14] = tested on: E. coli ELZ4251 (MDR clinical isolate); experiment: Antibacterial activity, MIC, MDR E. coli ELZ4251; format: cell-based, Escherichia coli; settings: E. coli ELZ4251, MDR clinical isolate; for MIC: Escherichia coli, read-out: MIC ELZ4251
[15] = resistant A. baumannii MMX2240, MDR clinical isolate
[16] = resistant K. pneumoniae MMX1232, MDR clinical isolate

CCc1c(-c2ccc(C3=CCN(C)CC3)cc2)[nH]c(=O)c(C(=O)O)c1O [Cpd 342, 5-ethyl-4-hydroxy-6-(4-(1-methyl-1,2,3,6-tetrahydropyridin-4-yl)phenyl)-2-oxo-1,2-dihydropyridine-3-carboxylic acid]
MIC [1]: 12.5 to 150 µg/mL (≈ 35.3 to 423 µM) | MIC [2]: 3.5 to 12.5 µg/mL (≈ 9.88 to 35.3 µM) | MIC [3]: 12.5 to 150 µg/mL (≈ 35.3 to 423 µM) | MIC [4]: 3.5 to 12.5 µg/mL (≈ 9.88 to 35.3 µM) | MIC [5]: 1 to 3.5 µg/mL (≈ 2.82 to 9.88 µM) | MIC [6]: 3.5 to 12.5 µg/mL (≈ 9.88 to 35.3 µM) | MIC [7]: 12.5 to 150 µg/mL (≈ 35.3 to 423 µM) | MIC [8]: 12.5 to 150 µg/mL (≈ 35.3 to 423 µM) | MIC [9]: 12.5 to 150 µg/mL (≈ 35.3 to 423 µM)

CCc1c(-c2ccc(N3CCC(O)(CC)C3)cc2)[nH]c(=O)c(C(=O)O)c1O (stereo not drawn) [Cpd 288, 5-ethyl-6-[4-(3-ethyl-3-hydroxypyrrolidin-1-yl)phenyl]-4-hydroxy-2-oxo-1,2-dihydropyridine-3-carboxylic acid]
MIC [1]: 3.5 to 12.5 µg/mL (≈ 9.4 to 33.6 µM) | MIC [2]: 3.5 to 12.5 µg/mL (≈ 9.4 to 33.6 µM) | MIC [3, 15]: 1 to 3.5 µg/mL (≈ 2.69 to 9.4 µM) | MIC [4]: 1 to 3.5 µg/mL (≈ 2.69 to 9.4 µM) | MIC [5]: < 1 µg/mL | MIC [6]: 3.5 to 12.5 µg/mL (≈ 9.4 to 33.6 µM) | MIC [7, 16]: 12.5 to 150 µg/mL (≈ 33.6 to 403 µM) | MIC [8]: 1 to 3.5 µg/mL (≈ 2.69 to 9.4 µM) | MIC [9]: 1 to 3.5 µg/mL (≈ 2.69 to 9.4 µM)

CCc1c(-c2ccc(N(C)C)c(F)c2)[nH]c(=O)c(C(=O)O)c1O [Cpd 94, 6-[4-(dimethylamino)-3-fluorophenyl]-5-ethyl-4-hydroxy-2-oxo-1,2-dihydropyridine-3-carboxylic acid]
MIC [1]: 12.5 to 150 µg/mL (≈ 39 to 468 µM) | MIC [10]: < 1 µg/mL | MIC [11]: < 1 µg/mL | MIC [2]: 12.5 to 150 µg/mL (≈ 39 to 468 µM) | MIC [12]: < 1 µg/mL | MIC [13]: 12.5 to 150 µg/mL (≈ 39 to 468 µM) | MIC [14]: 12.5 to 150 µg/mL (≈ 39 to 468 µM) | MIC [4]: 12.5 to 150 µg/mL (≈ 39 to 468 µM) | MIC [5]: < 1 µg/mL | MIC [6]: 12.5 to 150 µg/mL (≈ 39 to 468 µM) | MIC [8]: 12.5 to 150 µg/mL (≈ 39 to 468 µM) | MIC [9]: 12.5 to 150 µg/mL (≈ 39 to 468 µM)

CCc1c(-c2ccc(OC)cc2)[nH]c(=O)c(C(=O)O)c1O [Cpd 25, 5-ethyl-4-hydroxy-6-(4-methoxyphenyl)-2-oxo-1,2-dihydropyridine-3-carboxylic acid]
MIC [2]: 12.5 to 150 µg/mL (≈ 43.2 to 519 µM) | MIC [3, 15]: 1 to 3.5 µg/mL (≈ 3.46 to 12.1 µM) | MIC [13]: 12.5 to 150 µg/mL (≈ 43.2 to 519 µM) | MIC [14]: 12.5 to 150 µg/mL (≈ 43.2 to 519 µM) | MIC [4]: 3.5 to 12.5 µg/mL (≈ 12.1 to 43.2 µM) | MIC [5]: < 1 µg/mL | MIC [7, 16]: 12.5 to 150 µg/mL (≈ 43.2 to 519 µM) | MIC [8]: 12.5 to 150 µg/mL (≈ 43.2 to 519 µM) | MIC [9]: 3.5 to 12.5 µg/mL (≈ 12.1 to 43.2 µM)

CCc1c(-c2ccc(N3C[C@@H]4[C@@H](N)[C@@H]4C3)cc2)[nH]c(=O)c(C(=O)O)c1O [Cpd 285, 6-{4-[(1R,5S,6s)-6-amino-3-azabicyclo[3.1.0]hex-3-yl]phenyl}-5-ethyl-4-hydroxy-2-oxo-1,2-dihydropyridine-3-carboxylic acid]
MIC 27853 [1]: ** (an MIC value between >3.5 μg/mL and ≦12.5 μg/mL is indicated by two stars (**)) | MIC [10]: 1 to 3.5 µg/mL (≈ 2.81 to 9.85 µM) | MIC [11]: < 1 µg/mL | MIC [12]: < 1 µg/mL | MIC MMX2240 [3, 15]: * (an MIC value between >12.5 μg/mL and ≦150 μg/mL is indicated by a single star (*)) | MIC [13]: 12.5 to 150 µg/mL (≈ 35.2 to 422 µM) | MIC ELZ4251 [14]: ** (an MIC value between >3.5 μg/mL and ≦12.5 μg/mL is indicated by two stars (**)) | MIC 35657 [6]: *** (an MIC value between >1.0 μg/mL and ≦3.5 μg/mL is indicated by three stars (***))

CCc1c(-c2ccc(N3CCC(O)C3)cc2)[nH]c(=O)c(C(=O)O)c1O (stereo not drawn) [Cpd 126, 5-ethyl-4-hydroxy-6-[4-(3-hydroxypyrrolidin-1-yl)phenyl]-2-oxo-1,2-dihydropyridine-3-carboxylic acid]
MIC [1]: 3.5 to 12.5 µg/mL (≈ 10.2 to 36.3 µM) | MIC [10]: < 1 µg/mL | MIC [11]: < 1 µg/mL | MIC [2]: 12.5 to 150 µg/mL (≈ 36.3 to 436 µM) | MIC [12]: < 1 µg/mL | MIC [3, 15]: 12.5 to 150 µg/mL (≈ 36.3 to 436 µM) | MIC [13]: 12.5 to 150 µg/mL (≈ 36.3 to 436 µM) | MIC [14]: 12.5 to 150 µg/mL (≈ 36.3 to 436 µM) | MIC [4]: < 1 µg/mL | MIC [5]: < 1 µg/mL | MIC [7, 16]: 12.5 to 150 µg/mL (≈ 36.3 to 436 µM) | MIC [8]: 1 to 3.5 µg/mL (≈ 2.9 to 10.2 µM) | MIC [9]: < 1 µg/mL

CCc1c(-c2ccc(N3CC[C@@H](O)C3)cc2)[nH]c(=O)c(C(=O)O)c1O [Cpd 124, 5-ethyl-4-hydroxy-6-{4-[(3R)-3-hydroxypyrrolidin-1-yl]phenyl}-2-oxo-1,2-dihydropyridine-3-carboxylic acid]
MIC [10]: < 1 µg/mL | MIC [11]: < 1 µg/mL | MIC [2]: 12.5 to 150 µg/mL (≈ 36.3 to 436 µM) | MIC [12]: < 1 µg/mL | MIC [3, 15]: 12.5 to 150 µg/mL (≈ 36.3 to 436 µM) | MIC [13]: 12.5 to 150 µg/mL (≈ 36.3 to 436 µM) | MIC [14]: 12.5 to 150 µg/mL (≈ 36.3 to 436 µM) | MIC [4]: < 1 µg/mL | MIC [5]: < 1 µg/mL | MIC [7, 16]: 12.5 to 150 µg/mL (≈ 36.3 to 436 µM) | MIC [8]: 1 to 3.5 µg/mL (≈ 2.9 to 10.2 µM) | MIC [9]: < 1 µg/mL

CCc1cc(C(=O)O)c(=O)[nH]c1-c1ccc(N(C)C)c(F)c1 [Cpd 93, 6-[4-(dimethylamino)-3-fluorophenyl]-5-ethyl-2-oxo-1,2-dihydropyridine-3-carboxylic acid]
MIC [1]: 12.5 to 150 µg/mL (≈ 41.1 to 493 µM) | MIC [10]: < 1 µg/mL | MIC [11]: < 1 µg/mL | MIC [2]: 12.5 to 150 µg/mL (≈ 41.1 to 493 µM) | MIC [12]: < 1 µg/mL | MIC [13]: 12.5 to 150 µg/mL (≈ 41.1 to 493 µM) | MIC [14]: 12.5 to 150 µg/mL (≈ 41.1 to 493 µM) | MIC [4]: 12.5 to 150 µg/mL (≈ 41.1 to 493 µM) | MIC [5]: < 1 µg/mL | MIC [6]: 12.5 to 150 µg/mL (≈ 41.1 to 493 µM) | MIC [8]: 12.5 to 150 µg/mL (≈ 41.1 to 493 µM) | MIC [9]: 12.5 to 150 µg/mL (≈ 41.1 to 493 µM)
